Experimental data: patent publication US20250197379A1 (KHR Biotec GmbH, priority 2021, published 2025)

Legend:
KRAS G12V = target: T1, KRAS G12V (Homo sapiens, UniProt P01116, G12V); test: NanoBiT assay for RAS activation (KRAS G12V); conditions: Biochemical and cell based activity
T1 construct: K, N and HRAS G12V (full length) was cloned with Xho I and Bgl I to LgBit; expressed in transfected cells; host or cells: HeLa
Protocol: N-terminal LgBiT and C-terminal SmBiT construct was purchased from Promega and K, N and HRAS G12V (full length) was cloned with Xho I and Bgl I to LgBit and CRAF Ras binding domain (1-149) was cloned with EcoRI and Bgl II to SmBit. For transfections, 1 μg or 2 μg of (12 well/6 well) plasmids were transfected into cells with 0.5 mM of PEI reagent in 100 μl or 200 μl PBS. One day after transfection, cells were harvested and seeded into 96 well white plates (Greiner) or 384 well white plate (Greiner). After an additional day the medium was changed to serum free DMEM and the cells were incubated for 2 h with the compounds according to the invention. NanoGlo assay was performed according to the manufacturer's instructions. The luminescence was measured using Tecan infinite (Tecan).

elF4A1 = target: T2, elF4A1 (Homo sapiens, UniProt P60842); test: Dual luciferase assay for cap dependent translation initiation (eIF4A); conditions: Biochemical and cell based activity
T2 construct: endogenous in cells; host or cells: HeLa
Protocol: Dual luciferase assay for Cap-dependent translation initiation was performed in HeLa cells transfected with pFR_HCV_xb. […] After incubation, Dual luciferase reporter assay was performed according to the manufacturer's instruction and the luminescence was measured using a multiplate reader. Data were normalized to cells transfected with the indicated mutant and exposed to DMSO for 24 h. DMSO-treated cells were set as 1. The bars represent mean±SD from 3 independent experiments. The dot plot indicate the value from each experiment.

In vitro DMPK: CLi Human = format: in vitro ADME

T2 sequence (P60842 whole entry): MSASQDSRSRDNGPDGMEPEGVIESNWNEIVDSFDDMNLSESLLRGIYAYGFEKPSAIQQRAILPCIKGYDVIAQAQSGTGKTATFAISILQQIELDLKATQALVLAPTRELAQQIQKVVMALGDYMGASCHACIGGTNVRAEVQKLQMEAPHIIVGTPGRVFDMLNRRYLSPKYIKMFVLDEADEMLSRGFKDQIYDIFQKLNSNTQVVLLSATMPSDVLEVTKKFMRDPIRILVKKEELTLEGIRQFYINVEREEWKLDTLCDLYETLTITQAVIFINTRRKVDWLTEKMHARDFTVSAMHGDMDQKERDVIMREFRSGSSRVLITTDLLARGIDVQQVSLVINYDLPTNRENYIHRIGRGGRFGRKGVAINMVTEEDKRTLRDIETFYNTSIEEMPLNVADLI
T1 sequence (P01116 1-188 isoform P01116-2 G12V): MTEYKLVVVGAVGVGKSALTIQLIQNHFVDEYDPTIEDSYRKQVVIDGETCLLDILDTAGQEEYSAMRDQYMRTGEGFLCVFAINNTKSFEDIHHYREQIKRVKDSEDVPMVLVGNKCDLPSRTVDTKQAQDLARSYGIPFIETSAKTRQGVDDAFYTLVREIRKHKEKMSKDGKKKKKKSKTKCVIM

| SMILES | IC50 (KRAS G12V) | IC50 (elF4A1) | CLi Human (In vitro DMPK: CLi Human) |
| --- | --- | --- | --- |
| COc1cc(OC)c2c(c1)O[C@@]1(c3ccc(C#N)cc3)[C@H](c3cccc(F)c3)C[C@H](NC(=O)N3CCOCC3)[C@@]21O [Compound 37] | 19 nM | 24 nM | 64 µL/min/mg |
| COc1cc(OC)c2c(c1)O[C@@]1(c3ccc(Cl)cc3)[C@H](c3cccc(F)c3)C[C@H](NC(=O)NC(C)C)[C@@]21O (single isomer, unassigned) [Compound 8] | 78 nM | 120 nM | 31 µL/min/mg |
| COc1cc(OC)c2c(c1)O[C@@]1(c3ccc(Cl)cc3)[C@H](c3cccc(F)c3)C[C@H](NC(=O)N3CCN(C)CC3)[C@@]21O (single isomer, unassigned) [Compound 2] | 79 nM | 84 nM | 5.5 µL/min/mg |
| COc1cc(OC)c2c(c1)O[C@@]1(c3ccc(Cl)cc3)[C@H](c3cccc(F)c3)C[C@H](NC(=O)N3CCS(=O)(=O)CC3)[C@@]21O [Compound 39] | 32 nM | 39 nM |  |
| COc1cc(OC)c2c(c1)O[C@@]1(c3ccc(C#N)cc3)[C@H](c3cccc(F)c3)C[C@H](NC(=O)N3CCN(C)CC3)[C@@]21O [Compound 38] | 21 nM | 21 nM |  |
| COc1cc(OC)c2c(c1)O[C@@]1(c3ccc(Cl)cc3)[C@H](c3cccc(F)c3)C[C@H](NC(=O)N3CCCC3)[C@@]21O (single isomer, unassigned) [Compound 5] | 95 nM | 60 nM |  |
| COc1cc(OC)c2c(c1)O[C@@]1(c3ccc(Cl)cc3)[C@H](c3cccc(F)c3)C[C@H](NC(=O)N3CCOCC3)[C@@]21O [Compound 19] | 58 nM | 80 nM |  |
| CCN(CC)C(=O)N[C@H]1C[C@@H](c2cccc(F)c2)[C@]2(c3ccc(Cl)cc3)Oc3cc(OC)cc(OC)c3[C@]12O (single isomer, unassigned) [Compound 11] | 94 nM | 75 nM |  |
| COc1cc(OC)c2c(c1)O[C@@]1(c3ccc(C#N)cc3)[C@H](c3cccc(F)c3)C[C@H](NC(=O)N3CCC3)[C@@]21O [Compound 36] | 24 nM | 25 nM |  |
| COc1cc(OC)c2c(c1)OC1(c3ccc(Cl)cc3)[C@@H](c3cccc(F)c3)CC(NC(=O)N(C)C)C21O (single isomer, unassigned) [Compound C2, reference compound] | 55 nM | 63 nM | 290 µL/min/mg |

Continued, in another order:

| IC50 (KRAS G12V) | IC50 (elF4A1) | SMILES | CLi Human (In vitro DMPK: CLi Human) |
| --- | --- | --- | --- |
| 97 nM | 143 nM | COc1cc(OC)c2c(c1)O[C@@]1(c3ccc(Cl)cc3)[C@H](c3cccc(F)c3)C[C@H](NC(=O)N3CCC(N(C)C)CC3)[C@@]21O [Compound 40] |  |
| 57 nM | 80 nM | COc1cc(OC)c2c(c1)O[C@@]1(c3ccc(Cl)cc3)[C@H](c3cccc(F)c3)C[C@H](NC(=O)N3CC4CCC(C3)N4C)[C@@]21O [Compound 43] |  |
| 50 nM | 55 nM | COc1cc(OC)c2c(c1)O[C@@]1(c3ccc(Cl)cc3)[C@H](c3cccc(F)c3)C[C@H](NC(=O)N3CC(N(C)C)C3)[C@@]21O [Compound 41] |  |
| 48 nM | 54 nM | COc1cc(OC)c2c(c1)O[C@@]1(c3ccc(Cl)cc3)[C@H](c3cccc(F)c3)C[C@H](NC(=O)NCCO)[C@@]21O [Compound 42] |  |
| 41 nM | 22 nM | COc1cc(OC)c2c(c1)O[C@@]1(c3ccc(C#N)cc3)[C@H](c3cccc(F)c3)C[C@H](NC(=O)N3CC4(COC4)C3)[C@@]21O [Compound 47] |  |
